Values of other authors, collected in patent EP0548940B1, “Insecticidal compositions” (SUMITOMO CHEMICAL COMPANY LIMITED, priority 1991, dated 1993).

Details: at 25°C, water-diluted solution

Row | pKa value | SMILES
1 | Azelaic acid 4.8 (4.39) | O=C(O)CCCCCCCC(=O)O [Azelaic acid]
2 | Boric acid 4.8 (9.24) | OB(O)O [Boric acid]
